The values below come from patent US9505710B2 (priority 2015, dated 2016).

Counter-ions that a name gives are not always drawn.

The target in one assay is T1, BoNT/A LC1-429 (Clostridium botulinum, UniProt P0DPI1). Kind of assay: biochemical.
T1 sequence (P0DPI1 1-429, added parts left off): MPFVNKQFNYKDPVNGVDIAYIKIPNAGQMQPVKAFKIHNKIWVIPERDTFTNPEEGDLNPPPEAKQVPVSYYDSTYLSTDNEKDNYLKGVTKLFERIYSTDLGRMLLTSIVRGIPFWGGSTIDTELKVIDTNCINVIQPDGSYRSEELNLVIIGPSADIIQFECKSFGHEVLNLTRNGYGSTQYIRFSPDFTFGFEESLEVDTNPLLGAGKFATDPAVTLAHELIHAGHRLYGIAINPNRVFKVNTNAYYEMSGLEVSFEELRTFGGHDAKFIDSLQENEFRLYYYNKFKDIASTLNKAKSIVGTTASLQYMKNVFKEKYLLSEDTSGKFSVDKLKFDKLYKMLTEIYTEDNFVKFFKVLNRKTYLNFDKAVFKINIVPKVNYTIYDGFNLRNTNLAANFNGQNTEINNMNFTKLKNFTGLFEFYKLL
Conditions: not given
In the case of `CCO[C@H](CC(=O)NO)[C@H](Cc1ccccc1)c1ccc(F)cc1` [Example 1-1, (3R,4R)-3-ethoxy-4-(4-fluorophenyl)-N-hydroxy-5-phenylpentanamide], the affinity, expressed as Ki, was 38.5 nM.

With `CCO[C@H](CC(=O)NO)[C@H](Cc1cccc(Br)c1)c1ccc(F)cc1` [Example 1-2, (3R,4R)-5-(3-bromophenyl)-3-ethoxy-4-(4-fluorophenyl)-N-hydroxypentanamide], affinity was put at a Ki of 154 nM.

For `CCO[C@H](CC(=O)NO)[C@H](Cc1ccc(Br)cc1)c1ccc(F)cc1` [Example 1-4, (3R,4R)-5-(4-bromophenyl)-3-ethoxy-4-(4-fluorophenyl)-N-hydroxypentanamide], the affinity, expressed as Ki, was 6.8 nM. Compared with the last compound, the Ki is about 23-fold lower.

With `C=Cc1ccc(C[C@H](c2ccc(F)cc2)[C@@H](CC(=O)NO)OCC)cc1` [Example 1-5, (3R,4R)-3-ethoxy-4-(4-fluorophenyl)-N-hydroxy-5-(4-vinylphenyl)pentanamide], the affinity corresponds to a Ki of 33.5 nM.

Consider `CCO[C@H](CC(=O)NO)[C@H](Cc1ccc(CC)cc1)c1ccc(F)cc1` [Example 1-6, (3R,4R)-3-ethoxy-5-(4-ethylphenyl)-4-(4-fluorophenyl)-N-hydroxypentanamide], for which affinity was put at a Ki of 91.5 nM. This Ki is about 2.7-fold higher than that of the compound before.

As to `CCO[C@H](CC(=O)NO)[C@H](Cc1ccc(C(=O)NC)cc1)c1ccc(F)cc1` [Example 1-7], the Ki (in general, the equilibrium dissociation constant of an inhibitor or competing ligand from its target) came to 1220 nM.

In the case of `CCO[C@H](CC(=O)NO)[C@H](Cc1ccc(C(=O)N(C)C)cc1)c1ccc(F)cc1` [Example 1-8, 4-((2R,3R)-3-ethoxy-2-(4-fluorophenyl)-5-(hydroxyamino)-5-oxopentyl)-N,N-dimethylbenzamide], the Ki stood at 4350 nM.

The compound `CCO[C@H](CC(=O)NO)[C@H](Cc1ccc(C(=O)O)cc1)c1ccc(F)cc1` [Example 1-10, 4-((2R,3R)-3-ethoxy-2-(4-fluorophenyl)-5-(hydroxyamino)-5-oxopentyl)benzoic acid] yielded an inhibition constant Ki of 23300 nM.

`CCO[C@H](CC(=O)NO)[C@H](Cc1cccc(-c2ccncc2)c1)c1ccc(F)cc1` [Example 1-11, (3R,4R)-3-ethoxy-4-(4-fluorophenyl)-N-hydroxy-5-(3-(pyridin-4-yl)phenyl)pentanamide] gave a Ki of 1060 nM. This Ki is about 22-fold lower than that of the compound before.

On to `CCO[C@H](CC(=O)NO)[C@H](Cc1ccc(-c2ccncc2)cc1)c1ccc(F)cc1` [Example 1-12, (3R,4R)-3-ethoxy-4-(4-fluorophenyl)-N-hydroxy-5-(4-(pyridin-4-yl)phenyl)pentanamide], for which the Ki came to 178 nM.

`CCO[C@H](CC(=O)NO)[C@H](Cc1ccc(-c2cccnc2)cc1)c1ccc(F)cc1` [Example 1-13, (3R,4R)-3-ethoxy-4-(4-fluorophenyl)-N-hydroxy-5-(4-(pyridin-3-yl)phenyl)pentanamide] yielded a Ki of 147 nM. The Ki values of the last two compounds are within 1.5-fold of each other.

On to `CCO[C@H](CC(=O)NO)[C@H](Cc1ccc(-c2cncc(C)c2)cc1)c1ccc(F)cc1` [Example 1-14, (3R,4R)-3-ethoxy-4-(4-fluorophenyl)-N-hydroxy-5-(4-(5-methylpyridin-3-yl)phenyl)pentanamide], for which the Ki was 158 nM.

The next assay has as its target T1, BoNT/A LC1-429. Put plainly: biochemical. The note with it: BoNT/A Ki (nM).
The compound `COCCO[C@H](CC(=O)NO)[C@H](Cc1ccc(Cl)cc1)c1ccc(F)cc1F` [Example 6-14, (3R,4R)-5-(4-chlorophenyl)-4-(2,4-difluorophenyl)-N-hydroxy-3-(2-methoxyethoxy)pentanamide] registered an inhibition constant Ki of 55.1 nM.

`CCCCO[C@H](CC(=O)NO)[C@H](Cc1ccc(Cl)cc1)c1ccc(F)cc1F` [Example 6-15, (3R,4R)-3-butoxy-5-(4-chlorophenyl)-4-(2,4-difluorophenyl)-N-hydroxypentanamide]: affinity was put at a Ki of 48.5 nM. This Ki and that of the compound before are within 1.5-fold of each other.

As to `CCCO[C@H](CC(=O)NO)[C@H](Cc1ccc(Cl)cc1)c1ccc(F)cc1F` [Example 6-16, (3R,4R)-5-(4-chlorophenyl)-4-(2,4-difluorophenyl)-N-hydroxy-3-propoxypentanamide], the affinity, expressed as Ki, was 38.5 nM.

`O=C(C[C@@H](OCC1CC1)[C@H](Cc1ccc(Cl)cc1)c1ccc(F)cc1F)NO` [Example 6-17, (3R,4R)-5-(4-chlorophenyl)-3-(cyclopropylmethoxy)-4-(2,4-difluorophenyl)-N-hydroxypentanamide] gave an inhibitory constant (Ki) of 52.4 nM.

Turning to `O=C(C[C@@H](OCCO)[C@H](Cc1ccc(Cl)cc1)c1ccc(F)cc1F)NO` [Example 6-18, (3R,4R)-5-(4-chlorophenyl)-4-(2,4-difluorophenyl)-N-hydroxy-3-(2-hydroxyethoxy)pentanamide], the inhibition constant (Ki) came to 8.75 nM.

`O=C(C[C@@H](OCCCO)[C@H](Cc1ccc(Cl)cc1)c1ccc(F)cc1F)NO` [Example 6-19, (3R,4R)-5-(4-chlorophenyl)-4-(2,4-difluorophenyl)-N-hydroxy-3-(3-hydroxypropoxy)pentanamide] returned an inhibition constant (Ki) of 1.45 nM.

The compound `CO[C@H](CC(=O)NO)[C@H](Cc1ccc(Cl)cc1)c1ccc(F)cc1F` [Example 6-20, (3R,4R)-5-(4-chlorophenyl)-4-(2,4-difluorophenyl)-N-hydroxy-3-methoxypentanamide potassium salt] had an inhibitory constant (Ki) of 8.3 nM.

In turn, `CCO[C@H](CC(=O)NO)[C@H](Cc1ccc(Cl)cc1)c1ccc(F)cc1F` [Example 6-21, (3R,4R)-5-(4-chlorophenyl)-4-(2,4-difluorophenyl)-3-ethoxy-N-hydroxypentanamide potassium salt] yielded a Ki of 12 nM.

The compound `CO[C@H](CC(=O)NO)[C@H](Cc1ccc(Cl)cc1C)c1ccc(F)cc1F` [Example 6-22, (3R,4R)-5-(4-chloro-2-methylphenyl)-4-(2,4-difluorophenyl)-N-hydroxy-3-methoxypentanamide potassium salt] registered a Ki of 6.7 nM. Against the preceding compound, the Ki is about 1.8-fold lower.

On to `CO[C@H](CC(=O)NO)[C@H](Cc1ccc(Cl)cc1C)c1ccc(Br)cc1F` [Example 6-23, (3R,4R)-4-(4-bromo-2-fluorophenyl)-5-(4-chloro-2-methylphenyl)-N-hydroxy-3-methoxypentanamide], for which the affinity corresponds to a Ki of 1.94 nM. Against the preceding compound, the Ki is about 3.5-fold lower.

For the compound `CCO[C@H](CC(=O)NO)[C@H](Cc1ccc(Cl)cc1)c1ccc(Cl)c(Br)c1` [Example 6-24, (3R,4R)-4-(3-bromo-4-chlorophenyl)-5-(4-chlorophenyl)-3-ethoxy-N-hydroxypentanamide], the affinity, expressed as Ki, was 8.1 nM.

In turn, `CC(C)(C)OC(=O)NCCCO[C@H](CC(=O)NO)[C@H](Cc1ccc(Cl)cc1)c1ccc(F)cc1F` [Example 6-25, tert-butyl (3-(((3R,4R)-5-(4-chlorophenyl)-4-(2,4-difluorophenyl)-1-(hydroxyamino)-1-oxopentan-3-yl)oxy)propyl)carbamate] displayed an inhibition constant Ki of more than 150000 nM.

In the case of `NCCCO[C@H](CC(=O)NO)[C@H](Cc1ccc(Cl)cc1)c1ccc(F)cc1F` [Example 6-26, (3R,4R)-3-(3-aminopropoxy)-5-(4-chlorophenyl)-4-(2,4-difluorophenyl)-N-hydroxypentanamide], the inhibition constant (Ki) came out at 55000 nM.

Compound `O=C(O)CCO[C@H](CC(=O)NO)[C@H](Cc1ccc(Cl)cc1)c1ccc(F)cc1F` [Example 6-27, 3-(((3R,4R)-5-(4-chlorophenyl)-4-(2,4-difluorophenyl)-1-(hydroxyamino)-1-oxopentan-3-yl)oxy)propanoic acid] displayed a Ki of 361 nM.
